Experimental data published in ChEMBL document CHEMBL2150976, “Camptothecins in tumor homing via an RGD sequence mimetic” (Bioorg Med Chem Lett, 2012).

How the values were obtained:
Integrin alpha-V/beta-3 [1] = molecular target: T1, Integrin alpha-V/beta-3 (Homo sapiens, UniProt P05106+P06756); test: Inhibition of vitronectin binding to human alphaVbeta3 integrin over expressed in A2780 cells; format: cell-based
Integrin alpha-V/beta-3 [2] = molecular target: T1, Integrin alpha-V/beta-3; test: Displacement of [125I]echistatin from integrin […] after 3 hrs by gamma counter; format: protein-complex assay
A2780 = test: Cytotoxicity against human A2780 cells overexpressing […] integrin assessed as cell survival after 72 hrs by SRB assay; format: functional, cell-based; conditions: A2780, 72 h
PC-3 [3] = test: Cytotoxicity against human PC3 cells expressing […] integrin assessed as cell survival after 72 hrs by SRB assay; format: functional, cell-based; conditions: PC-3, 72 h
Integrin alpha-V/beta-5 = Integrin alpha-V/beta-5 (Homo sapiens, UniProt P06756+P18084); test: Displacement of [125I]echistatin from integrin […] after 3 hrs by gamma counter; format: protein-complex assay
Integrin alpha-V/beta-3 [4] = molecular target: T1, Integrin alpha-V/beta-3; test: Inhibition of vitronectin binding to human alphaVbeta3 integrin expressed in PC3 cells; format: cell-based, PC-3
PC-3 [5] = test: Antimetastatic activity against human PC3 cells xenografted in CD1 nude mouse assessed as area of metastases at 60 mg/10 mL/kg, ip q4d x 4 schedule administered on day 3 of tumor implantation measured after 31 days post tumor implantation; format: functional
PC-3 [6] = test: Antimetastatic activity against human PC3 cells xenografted in CD1 nude mouse assessed as median survival time at 60 mg/10 mL/kg, ip q4d x 4 schedule administered on day 3 of tumor implantation measured after 31 days post tumor implantation; format: functional
[7] = Half life in rat plasma at 5 uM after 24 hrs by HPLC analysis; format: ADME, cell-free
Mus musculus [8] = test: Toxicity in CD1 nude mouse xenografted with human A498 cells assessed as mortality at 55 mg/10 mL/kg, ip q4d x 8 schedule administered on day 3 of tumor implantation measured after 10 days; format: organism-based; conditions: in vivo, 240 h
PC-3 [9] = test: Antimetastatic activity against human PC3 cells xenografted in CD1 nude mouse assessed as increase in life span at 60 mg/10 mL/kg, ip q4d x 4 schedule administered on day 3 of tumor implantation measured after 31 days post tumor implantation; format: functional
Mus musculus [10] = test: Toxicity in CD1 nude mouse xenografted with human PC3 cells assessed as body weight loss at 60 mg/10 mL/kg, ip q4d x 4 schedule administered on day 3 of tumor implantation measured after 31 days post tumor implantation; format: organism-based, PC-3; conditions: in vivo, 744 h
Mus musculus [11] = test: Toxicity in CD1 nude mouse xenografted with human PC3 cells assessed as mortality at 60 mg/10 mL/kg, ip q4d x 4 schedule administered on day 3 of tumor implantation measured after 31 days post tumor implantation; format: organism-based, PC-3; conditions: in vivo, 744 h
A498 = test: Antitumor activity against human A498 cells xenografted in CD1 nude mouse assessed as tumor volume inhibition at 55 mg/10 mL/kg, ip q4d x 8 schedule administered on day 3 of tumor implantation measured after 10 days; format: functional
Mus musculus [12] = test: Toxicity in CD1 nude mouse xenografted with human A498 cells assessed as body weight loss at 55 mg/10 mL/kg, ip q4d x 8 schedule administered on day 3 of tumor implantation measured after 10 days; format: organism-based; conditions: in vivo, 240 h

T1 sequence (P05106 27-788 limits assumed): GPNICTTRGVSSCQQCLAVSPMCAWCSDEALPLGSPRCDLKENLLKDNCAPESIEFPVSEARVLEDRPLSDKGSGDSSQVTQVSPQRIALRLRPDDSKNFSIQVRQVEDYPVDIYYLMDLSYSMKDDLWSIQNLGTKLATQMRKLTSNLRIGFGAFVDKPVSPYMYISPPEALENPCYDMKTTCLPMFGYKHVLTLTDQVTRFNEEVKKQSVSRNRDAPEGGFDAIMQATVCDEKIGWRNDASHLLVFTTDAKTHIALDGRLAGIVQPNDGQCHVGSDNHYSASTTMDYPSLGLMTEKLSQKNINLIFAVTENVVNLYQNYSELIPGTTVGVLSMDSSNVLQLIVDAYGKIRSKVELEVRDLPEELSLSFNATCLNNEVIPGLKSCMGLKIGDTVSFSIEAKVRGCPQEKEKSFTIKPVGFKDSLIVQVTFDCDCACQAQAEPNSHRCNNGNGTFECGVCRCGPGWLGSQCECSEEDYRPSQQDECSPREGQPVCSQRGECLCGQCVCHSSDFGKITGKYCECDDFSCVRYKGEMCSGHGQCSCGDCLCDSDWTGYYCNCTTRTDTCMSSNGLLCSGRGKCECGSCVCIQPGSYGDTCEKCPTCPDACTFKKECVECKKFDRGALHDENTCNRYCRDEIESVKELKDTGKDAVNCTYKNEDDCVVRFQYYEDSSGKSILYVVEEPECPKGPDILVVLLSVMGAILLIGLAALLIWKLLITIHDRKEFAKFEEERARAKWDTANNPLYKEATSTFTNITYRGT
T1 sequence (P06756 31-889 limits assumed): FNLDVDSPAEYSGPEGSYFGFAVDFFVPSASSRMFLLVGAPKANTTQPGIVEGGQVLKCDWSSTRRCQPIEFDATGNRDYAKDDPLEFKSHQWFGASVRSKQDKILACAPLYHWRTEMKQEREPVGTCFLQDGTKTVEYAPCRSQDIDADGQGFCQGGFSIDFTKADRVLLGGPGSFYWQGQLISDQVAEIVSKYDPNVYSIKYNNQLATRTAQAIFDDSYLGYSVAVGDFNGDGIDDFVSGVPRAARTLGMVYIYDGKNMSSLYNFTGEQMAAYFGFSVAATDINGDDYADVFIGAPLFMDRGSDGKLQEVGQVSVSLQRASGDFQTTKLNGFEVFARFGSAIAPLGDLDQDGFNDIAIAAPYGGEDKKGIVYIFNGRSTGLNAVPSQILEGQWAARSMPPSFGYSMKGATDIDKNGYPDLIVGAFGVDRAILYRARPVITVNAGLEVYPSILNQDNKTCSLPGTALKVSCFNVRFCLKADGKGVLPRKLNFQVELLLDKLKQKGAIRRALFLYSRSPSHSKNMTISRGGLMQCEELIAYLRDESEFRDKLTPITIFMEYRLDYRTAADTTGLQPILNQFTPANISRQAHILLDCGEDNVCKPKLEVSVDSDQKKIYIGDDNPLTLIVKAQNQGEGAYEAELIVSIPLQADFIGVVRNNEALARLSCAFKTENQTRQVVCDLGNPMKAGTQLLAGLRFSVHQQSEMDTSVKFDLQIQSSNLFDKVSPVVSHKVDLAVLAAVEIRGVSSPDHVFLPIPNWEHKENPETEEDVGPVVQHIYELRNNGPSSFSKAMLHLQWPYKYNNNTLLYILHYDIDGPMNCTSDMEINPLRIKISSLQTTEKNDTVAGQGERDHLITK
T1 sequence (P06756 891-1048 limits assumed): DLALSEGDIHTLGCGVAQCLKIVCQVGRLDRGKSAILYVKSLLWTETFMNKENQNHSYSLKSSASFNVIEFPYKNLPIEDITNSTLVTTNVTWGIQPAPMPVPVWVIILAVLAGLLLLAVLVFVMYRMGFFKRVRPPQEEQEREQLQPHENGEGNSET
Sequence of Integrin alpha-V/beta-5 (P06756 31-889 limits assumed): as the sequence (P06756 31-889 limits assumed) above
Sequence of Integrin alpha-V/beta-5 (P06756 891-1048 limits assumed): as the sequence (P06756 891-1048 limits assumed) above
Sequence of Integrin alpha-V/beta-5 (P18084 24-799 limits assumed): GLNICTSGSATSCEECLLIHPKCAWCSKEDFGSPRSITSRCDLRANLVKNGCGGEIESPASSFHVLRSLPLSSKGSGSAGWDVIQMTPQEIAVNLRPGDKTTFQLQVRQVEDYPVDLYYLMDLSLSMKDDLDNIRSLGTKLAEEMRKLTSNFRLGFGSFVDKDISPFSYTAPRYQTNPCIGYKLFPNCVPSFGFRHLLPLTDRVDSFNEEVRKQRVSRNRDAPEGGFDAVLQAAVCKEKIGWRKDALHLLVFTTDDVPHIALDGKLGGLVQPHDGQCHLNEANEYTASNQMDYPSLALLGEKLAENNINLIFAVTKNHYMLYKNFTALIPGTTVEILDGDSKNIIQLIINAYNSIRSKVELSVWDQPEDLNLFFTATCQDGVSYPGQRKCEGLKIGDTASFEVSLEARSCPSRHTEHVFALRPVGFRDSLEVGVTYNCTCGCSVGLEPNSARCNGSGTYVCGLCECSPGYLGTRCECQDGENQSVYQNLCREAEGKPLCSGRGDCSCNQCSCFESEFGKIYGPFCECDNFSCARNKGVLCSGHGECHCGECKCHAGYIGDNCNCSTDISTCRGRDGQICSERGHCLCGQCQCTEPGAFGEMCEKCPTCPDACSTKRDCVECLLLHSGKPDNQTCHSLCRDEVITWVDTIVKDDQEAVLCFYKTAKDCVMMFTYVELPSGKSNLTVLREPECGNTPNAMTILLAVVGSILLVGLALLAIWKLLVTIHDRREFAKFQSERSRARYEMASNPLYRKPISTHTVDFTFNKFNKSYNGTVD

In the case of CC[C@@]1(O)C(=O)OCc2c1cc1n(c2=O)Cc2cc3c(CN(C)C)c(OC(=O)N4CCN(C(=O)c5ccc(COC(=O)N[C@@H](CCC(=O)N6CCN(c7cccc(NC8=NCCCN8)c7)CC6)C(=O)O)cc5)CC4)ccc3nc2-1, the IC50 (Integrin alpha-V/beta-3 [1]) is reported as 1000 nM, the IC50 (Integrin alpha-V/beta-3 [2]) is reported as 4.97 nM and the IC50 (A2780) is reported as 570 nM. It also gave an IC50 (PC-3 [3]) of over 1000 nM, an IC50 (Integrin alpha-V/beta-5) of 0.73 nM and an IC50 (Integrin alpha-V/beta-3 [4]) of 540 nM.
Molecule O=C(N[C@@H](CCC(=O)N1CCN(c2cccc(N=C3NCCCN3)c2)CC1)C(=O)O)OCc1ccc(C(=O)O)cc1 has an IC50 (Integrin alpha-V/beta-3 [1]) of 17 nM, an IC50 (Integrin alpha-V/beta-3 [2]) of 0.082 nM and an IC50 (Integrin alpha-V/beta-5) of 2.2 nM. It also gave an IC50 (Integrin alpha-V/beta-3 [4]) of 6.3 nM.
O=C(N[C@@H](CCC(=O)N1CCN(c2cccc(NC3=NCCCN3)c2)CC1)C(=O)O)OCc1ccccc1 gave an IC50 (Integrin alpha-V/beta-3 [2]) of 3.26 nM.
CCc1c2c(nc3ccc(O)cc13)-c1cc3c(c(=O)n1C2)COC(=O)[C@]3(O)CC [7-ETHYL-10-HYDROXYCAMPTOTHECIN] gave an IC50 (A2780) of 9 nM and an IC50 (PC-3 [3]) of 2.6 nM.
CC[C@@]1(O)C(=O)OCc2c1cc1n(c2=O)Cc2cc3c(CN(C)C)c(O)ccc3nc2-1 [TOPOTECAN] gave an IC50 (A2780) of 6 nM and an IC50 (PC-3 [3]) of 185 nM.
CC[C@@]1(O)C(=O)OCc2c1cc1n(c2=O)Cc2c-1nc1ccc(O)cc1c2/C=N/OC(C)(C)C gave an IC50 (A2780) of 0.4 nM and an IC50 (PC-3 [3]) of 15 nM.
COC(=O)c1ccc(CNC(=O)N[C@@H](CCC(=O)N2CCN(c3cccc(N=C4NCCCN4)c3)CC2)C(=O)O)cc1 showed an IC50 (Integrin alpha-V/beta-3 [2]) of 109 nM.
For CCc1c2c(nc3ccc(OC(=O)N4CCN(C(=O)c5ccc(COC(=O)N[C@@H](CCC(=O)N6CCN(c7cccc(NC8=NCCCN8)c7)CC6)C(=O)O)cc5)CC4)cc13)-c1cc3c(c(=O)n1C2)COC(=O)[C@]3(O)CC.Cl, the IC50 (Integrin alpha-V/beta-3 [1]) was 89 nM, the IC50 (Integrin alpha-V/beta-3 [2]) was 1.3 nM and the IC50 (A2780) was 33 nM. The IC50 (PC-3 [3]) was 3400 nM, the Activity (PC-3 [5]) was 2.5 mm2 and the MST (PC-3 [6]) was 63 days. For the same molecule, the half-life at 5 µM [7] was 13 h, the Activity (Mus musculus [8]) was “Non-toxic” and the Activity (PC-3 [9]) was 34%. The IC50 (Integrin alpha-V/beta-5) was 1 nM, the Activity (Mus musculus [10]) was 0% and the Activity (Mus musculus [11]) was “Non-toxic”. For the same molecule, the “inhibition (INH)” value (A498) was 39%, the Activity (Mus musculus [12]) was 3% and the IC50 (Integrin alpha-V/beta-3 [4]) was 37 nM.
Work on CC[C@@]1(O)C(=O)OCc2c1cc1n(c2=O)Cc2cc3cc(OC(=O)N4CCN(C(=O)c5ccc(COC(=O)N[C@@H](CCC(=O)N6CCN(c7cccc(NC8=NCCCN8)c7)CC6)C(=O)O)cc5)CC4)ccc3nc2-1 yielded an IC50 (Integrin alpha-V/beta-3 [1]) of 730 nM, an IC50 (Integrin alpha-V/beta-3 [2]) of 2.28 nM and an IC50 (A2780) of 110 nM. For the same molecule, the IC50 (PC-3 [3]) was over 1000 nM, the IC50 (Integrin alpha-V/beta-5) was 2.05 nM and the IC50 (Integrin alpha-V/beta-3 [4]) was 350 nM.
COC(=O)c1ccc(COC(=O)N[C@@H](CCC(=O)N2CCN(c3cccc(NC4=NCCCN4)c3)CC2)C(=O)O)cc1 gave an IC50 (Integrin alpha-V/beta-3 [2]) of 2.3 nM.
Molecule N[C@@H](CCC(=O)N1CCN(c2cccc(NC3=NCCCN3)c2)CC1)C(=O)O has an IC50 (Integrin alpha-V/beta-3 [2]) of 800 nM.
Work on CC[C@@]1(O)C(=O)OCc2c1cc1n(c2=O)Cc2cc3cc(O)ccc3nc2-1 [HYDROXYCAMPTOTHECIN] yielded an IC50 (A2780) of 4 nM and an IC50 (PC-3 [3]) of 78 nM.
Work on CC[C@@]1(O)C(=O)OCc2c1cc1n(c2=O)Cc2c-1nc1ccc(OC(=O)N3CCN(C(=O)c4ccc(COC(=O)N[C@@H](CCC(=O)N5CCN(c6cccc(NC7=NCCCN7)c6)CC5)C(=O)O)cc4)CC3)cc1c2/C=N/OC(C)(C)C yielded an IC50 (Integrin alpha-V/beta-3 [1]) of 670 nM, an IC50 (Integrin alpha-V/beta-3 [2]) of 4.83 nM and an IC50 (A2780) of 67 nM. It also gave an IC50 (PC-3 [3]) of over 1000 nM, an IC50 (Integrin alpha-V/beta-5) of 0.76 nM and an IC50 (Integrin alpha-V/beta-3 [4]) of 130 nM.
